{"source": "patent US20060275268A1", "about": "“COMPOSITIONS FOR ACTIVATING THE INFILTRATION ACTIVITY OF DENDRITIC CELLS, AND IMMUNOPOTENTIATING AGENTS” (priority 2003, published 2006)", "key": {"MMP-9 mRNA": {"tested_on": "MMP-9 mRNA", "test": "MMP-9 mRNA level in mature dendritic cells after induction of differentiation", "type": "cell-based, human", "conditions": "medium with 1 μM for three days, or 5 μM for one day then 1 μM for two days, FIG. 9", "description": "Total RNA was isolated from the cultured cells (1×10^6 cells) using TRIzol reagent (Life Technologies). Each RNA sample (2 μg) was converted to cDNA in 50 μl of reaction mixture containing 75 mM KCl, 50 mM Tris-HCl (pH 8.3), 3 mM MgCl2, 10 mM dithiothreitol, 0.5 mM each of dNTPs, 2 μM random primer, and 1000 U of TaqMan Reverse Transcription reagent. Each cDNA (10 ng) was amplified in triplicate using an SYBR-Green PCR assay kit, and sequenced using an ABI PRISM 7900HT sequence Detection System. PCR was carried out by incubation at 50° C. for 2 minutes and then at 95° C. for 15 minutes, followed by 15 cycles of denaturation at 95° C., 30 cycles of annealing at 60° C., and extension at 72° C. for 1 minute. […] The mature dendritic cells obtained in Example 1 were cultured in the culture medium supplemented with 1 μM all-trans retinoic acid for three days or in the culture medium supplemented with 5 μM all-trans retinoic acid for one day. The cells were further cultured in the culture medium supplemented with 1 μM all-trans retinoic acid for two days, to induce the differentiation of the dendritic cells. After the induction of the differentiation, MMP-9 mRNA level in the cells was determined."}, "dendritic cells": {"tested_on": "dendritic cells", "test": "Infiltration activity of dendritic cells by the Transwell Chamber method (Matrigel)", "type": "cell-based, human", "conditions": "for infiltration activity of immature and mature dendritic cells: 10 ng/ml added, FIG. 8", "protocol": "Peripheral blood mononuclear cells (PBMCs) from healthy subjects were separated by Ficoll-Paque density gradient centrifugation. Peripheral blood mononuclear cells were dispersed at a cell density of 2×10^6 cells/ml in complete RPMI-1640e medium, and the resulting suspension is incubated at 37° C. for one hour to give adhesive cells. Nonadhesive cells were removed by washing five times with RPMI-1640 medium. The adhesive cells were cultured in RPMI medium containing 1000 U/ml GM-CSF and 1000 U/ml IL-4, 10% FBS, 25 mM HEPES, 2 mM L-glutamic acid, 50 μM 2-ME, 1% nonessential amino acids, and 2 mM sodium pyruvate under hypoxic conditions (oxygen concentration was 1%; herein, hypoxic conditions refer to conditions where the oxygen concentration is 1%) or normoxic conditions (oxygen concentration was 20%; herein, normoxic conditions refer to conditions where the oxygen concentration is 20%) at 37° C. under an 5% carbon dioxide atmosphere for six days with half of the medium being changed every day. On day six, the cells were collected and divided into two groups. The first group was cultured in a medium containing IL-4 and GM-CSF for one day, and then used as immature dendritic cells. […]\nThe infiltration activity of dendritic cells was measured by the Transwell Chamber method using the following procedure: a Matrigel was immobilized onto a membrane that separates a top chamber and a bottom chamber; after washing, dendritic cells were placed in the top chamber; 100 ng/ml recombinant human RANTES was placed in the bottom chamber when immature dendritic cells were used, or 100 ng/ml recombinant human MCP-3 was placed in the bottom chamber when mature dendritic cells were used; cells migrating into the bottom chamber were counted. […]\nThe mature dendritic cells obtained in Example 1 were cultured in the culture medium supplemented with 1 μM all-trans retinoic acid to induce their differentiation. Then, the infiltration activity of dendritic cells was determined by the same procedure described in Example 7."}}, "data": [{"compound": "CC1=C(/C=C/C(C)=C/C=C/C(C)=C/C(=O)O)C(C)(C)CCC1", "note": "[all-trans retinoic acid]", "values": [{"measurement": "MMP-9 mRNA level in the cells", "setting": "MMP-9 mRNA", "result": "increased"}, {"measurement": "infiltration activity of dendritic cells", "setting": "dendritic cells; mature dendritic cells differentiated under hypoxic conditions, 1 μM in culture medium, FIG. 10", "result": "increased"}]}, {"compound": "TIMP-1 protein: TIMP-1 is an MMP-9-specific inhibitor; protein added at 10 ng/ml", "values": [{"measurement": "infiltration activity of immature and mature dendritic cells", "setting": "dendritic cells; cells differentiated under hypoxic conditions", "result": "not changed"}, {"measurement": "infiltration activity of immature and mature dendritic cells", "setting": "dendritic cells; cells differentiated under normoxic conditions", "result": "reduced"}]}]}
